Results: patent US8357701B2, “Galactokinase inhibitors” (University of Miami, priority 2007, dated 2013)

Assays:
Assay type in all cases: biochemical
[1] = target: T1, human galactokinase (GALK) (Homo sapiens, UniProt P51570); assay: two-step luminescence-based (Kinase-Glo) high-throughput GALK assay; conditions: ATP-γ-S from 0 to 13.3 μM, ATP constant at 5 μM; FIG. 3C
T1 construct: made in house; host or cells: Escherichia coli HMS174 (DE3), plasmid pET15b
Protocol: Using the Kinase-Glo™ reagent (Promega, Madison, Wis.), a miniaturized, two-step HTS assay for GALK was developed. […] After 60 minutes at room temperature (22° C.), 30 μL of Kinase Glo™ (Promega) was added, and luminescence was measured within 30 min using an Envision Multilabel Plate Reader (Perkin Elmer). In the course of 12 days, nearly 50,000 compounds from various libraries of small molecules with diverse structural scaffolds were screened for their inhibitory properties of GALK activity in vitro. […] The reaction was then allowed to proceed at room temperature (22° C.) for 60 min. Then, 30 μL of Kinase-Glo™ was added to stop the reaction, and luminescence was measured 15 to 30 min later using the Envision Multilabel Plate Reader (PerkinElmer). 50,000 small molecules were screened, in duplicate, for inhibitory properties against purified GALK. […] In short, duplicate luminescence measurements were corrected for background measurements using the method described by Seiler et al. (Nucl. Acids Res 2007). […] After 60 min at room temperature (22° C.), 30 μL of Kinase-Glo™ was added, and luminescence was measured within 30 min using an Envision Multilabel Plate Reader (PerkinElmer, Waltham, Mass.). […] Then, 30 μl of Kinase-Glo™ was added to stop the reaction, and luminescence was measured 15 to 30 min later using the Envision Multilabel Plate Reader (PerkinElmer). […]

[2] = target: T2, human GALK (Homo sapiens, UniProt P51570); assay: standard pyruvate kinase/lactate dehydrogenase-coupled GALK assay; conditions: dose response, FIG. 7; values somewhat lower than in the luminescence assay; no numbers given
T2 construct: made in house; host or cells: Escherichia coli HMS174 (DE3), plasmid pET15b
T2 sequence (P51570 whole entry): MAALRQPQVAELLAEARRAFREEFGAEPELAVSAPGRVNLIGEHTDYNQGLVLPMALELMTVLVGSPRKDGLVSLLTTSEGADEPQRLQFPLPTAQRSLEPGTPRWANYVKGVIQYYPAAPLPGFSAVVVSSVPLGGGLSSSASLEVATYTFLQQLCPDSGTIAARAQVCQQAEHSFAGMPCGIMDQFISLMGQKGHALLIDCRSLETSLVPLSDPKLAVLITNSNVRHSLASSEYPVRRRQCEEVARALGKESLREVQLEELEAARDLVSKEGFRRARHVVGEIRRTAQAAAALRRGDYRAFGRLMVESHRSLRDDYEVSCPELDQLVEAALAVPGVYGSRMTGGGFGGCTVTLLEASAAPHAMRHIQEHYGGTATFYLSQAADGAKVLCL
Text: As the percentage of substrate conversion can have significant impact on the accuracy of IC50 determination, the preferred approach is to determine reaction rates at initial velocity (i.e., zero substrate conversion). […] In this assay, the amount of galactose present in the reaction is kept in excess, whereas ATP consumed by the galactokinase reaction is recycled by the pyruvate kinase reaction.
As the percentage of substrate conversion can have significant impact on the accuracy of IC50 determination, the preferred approach is to determine reaction rates at initial velocity (i.e., zero substrate conversion). […] The dose response of the selected compounds was analyzed using the standard pyruvate kinase/lactate dehydrogenase-Coupled assay. In this assay, the amount of galactose present in the reaction was kept in excess, whereas ATP consumed by the galactokinase reaction was recycled by the pyruvate kinase reaction.

[3] = target: T3, purified recombinant E. coli CDP-ME kinase (Escherichia coli, UniProt P62615); assay: CDP-ME kinase assay (luminescence-based); conditions: CDP-ME as substrate; increasing compound concentration; FIG. 10B
T3 construct: made in house; host or cells: E. coli HMS174
T3 sequence (P62615 1-283): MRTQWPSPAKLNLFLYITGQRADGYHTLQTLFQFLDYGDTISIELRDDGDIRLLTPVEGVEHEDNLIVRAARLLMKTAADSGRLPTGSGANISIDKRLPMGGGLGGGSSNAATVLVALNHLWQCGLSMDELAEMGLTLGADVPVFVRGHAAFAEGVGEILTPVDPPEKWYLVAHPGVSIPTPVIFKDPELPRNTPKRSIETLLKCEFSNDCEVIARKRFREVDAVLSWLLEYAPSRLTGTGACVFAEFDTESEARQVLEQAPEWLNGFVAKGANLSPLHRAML
Protocol: Detailed Protocol for CDP-ME Kinase Assay
Protocol: Mix I was prepared using 1 microL for MVK. If dilutions are to be made, dilute in 1× buffer to 1 microL. Mix II was prepared just before use, as CMP-ME and ATP may deteriorate. Final CMP-ME concentration was chosen at 50 microM for the sake of economics and kept on ice until it was dispensed.
At least 4 replicates per condition were used in the experiment. Mix I was dispensed on the plate with a pipette. Mix II was then added and the plate covered with foil. The plates was incubated at 37° C. for 15 minutes and Kinase-Glo® (Promega, Madison Wis.) was added, the plate covered with foil, and incubated at RT for 15 minutes. Measurements were taken as described for the GALK protocol, the data were plotted and the enzyme concentration with reading within linear range just above baseline was selected.
Protocol to test for inhibition: Compound stored at −80° C. was slowly thawed. Stock was at 10 mM concentration.
These were incubated for 1 hour with MVK. Each dilution was then be pipetted into wells (40 microL each). 20 microL of Mix II was added to each well and covered with foil. The plates were incubated at 37° C., for 15 minutes, then Kinase-Glo® (Promega, Madison, Wis.) was added, plates were covered with foil, and incubated at room temperature (RT) for 15 minutes. The data was plotted and the IC50 was calculated.

T1 sequence (P51570 whole entry): as the sequence (P51570 whole entry) above

SMILES | inhibition of GALK activity by ATP mimetic [1] | IC50 values confirmed in coupled assay [2] | inhibition of E. coli CDP-ME kinase [3]
Nc1ncnc2c1ncn2[C@@H]1O[C@H](COP(=O)(O)OP(=O)(O)OP(O)(O)=S)[C@@H](O)[C@H]1O [ATP-γ-S, adenosine 5′-O-(3-thio-)triphosphate] | acted as a GALK inhibitor |  | 
CC(C)(C)C(=O)Nc1ccc2c(c1)C(=O)C(=O)c1ccccc1-2 [compound 1, Tyrosine Phosphatase CD45 inhibitor] |  | confirmed | 
CC1(c2ccccc2)CC(C)(C)N2C(=O)/C(=C3/SC(=O)NC3=O)c3cccc1c32 (stereo not drawn) [compound 3] |  | confirmed | 
Oc1c(Cl)cc(Cl)c(Cl)c1Cc1c(O)c(Cl)cc(Cl)c1Cl [compound 9, Hexachlorophene] |  | confirmed | inhibits E. coli CDP-ME kinase
COC1=C(N)C(=O)c2nc(-c3nc(C(=O)O)c(C)c(-c4ccc(OC)c(OC)c4O)c3N)ccc2C1=O [compound 24, Streptonigrin] |  | confirmed | 
